Laboratory results: ChEMBL document CHEMBL1201862, “PubChem BioAssay data set” (2004)
Active and inactive are the calls of the source.

Key:
[1] = target: T1, Dual specificity protein phosphatase 3 (Homo sapiens, UniProt P51452); test: VHR1 phosphatase inhibitors, biochemical (AID 1878)
[2] = target: T1, Dual specificity protein phosphatase 3; test: VHR1 phosphatase inhibitors, primary screen, biochemical, absorbance, uHTS (AID 1654)
[3] = target: Low molecular weight phosphotyrosine protein phosphatase (Homo sapiens, UniProt P24666); assay type: functional; details: read-out: IC50_Mean
Chain of Low molecular weight phosphotyrosine protein phosphatase (P24666 whole entry, the tested form may be a part): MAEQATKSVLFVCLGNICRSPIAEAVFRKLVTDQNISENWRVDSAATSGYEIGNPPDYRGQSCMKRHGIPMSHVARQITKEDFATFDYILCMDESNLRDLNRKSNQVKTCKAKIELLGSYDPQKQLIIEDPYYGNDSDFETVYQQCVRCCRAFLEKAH

[4] = target: T2, Carboxy-terminal domain RNA polymerase II polypeptide A small phosphatase 1 (Homo sapiens, UniProt Q9GZU7); test: inhibitors of CTDSP1, concentration-response testing, biochemical assay, absorbance-based, actives from ultra-high-throughput screening (AID 540297); assay type: functional
T2 sequence (Q9GZU7 whole entry): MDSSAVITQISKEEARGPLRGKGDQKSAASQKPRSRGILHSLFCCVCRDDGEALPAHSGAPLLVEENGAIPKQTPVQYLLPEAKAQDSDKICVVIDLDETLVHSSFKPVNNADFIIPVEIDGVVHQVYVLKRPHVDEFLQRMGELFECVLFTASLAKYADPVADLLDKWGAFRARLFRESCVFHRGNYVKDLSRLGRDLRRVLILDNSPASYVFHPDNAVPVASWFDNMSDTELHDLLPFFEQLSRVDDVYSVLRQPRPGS

[5] = target: T3, Dual specificity protein phosphatase 6 (Rattus norvegicus, UniProt Q64346); test: MKP-3 phosphatase inhibitors, primary screen, biochemical, rat enzyme, in vitro (AID 425)
T3 sequence (Q64346 whole entry): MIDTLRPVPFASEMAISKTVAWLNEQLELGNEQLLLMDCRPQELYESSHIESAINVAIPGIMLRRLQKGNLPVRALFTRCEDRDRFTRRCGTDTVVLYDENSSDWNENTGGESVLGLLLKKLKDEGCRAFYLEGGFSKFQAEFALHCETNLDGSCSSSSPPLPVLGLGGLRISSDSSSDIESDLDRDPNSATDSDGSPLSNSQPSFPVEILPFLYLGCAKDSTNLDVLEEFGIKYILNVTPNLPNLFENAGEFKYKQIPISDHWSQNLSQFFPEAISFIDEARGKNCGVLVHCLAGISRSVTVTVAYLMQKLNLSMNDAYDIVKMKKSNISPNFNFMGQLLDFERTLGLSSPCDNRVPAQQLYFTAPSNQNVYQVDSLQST

[6] = target: T4, G-protein coupled receptor 35 (Homo sapiens, UniProt Q9HC97); test: SAR analysis of Agonists of the GPR35 Receptor using an Image-Based Assay - Set 2. [Related pubchem assays (depositor defined):AID2013, AID2026]; assay type: functional
T4 sequence (Q9HC97 whole entry): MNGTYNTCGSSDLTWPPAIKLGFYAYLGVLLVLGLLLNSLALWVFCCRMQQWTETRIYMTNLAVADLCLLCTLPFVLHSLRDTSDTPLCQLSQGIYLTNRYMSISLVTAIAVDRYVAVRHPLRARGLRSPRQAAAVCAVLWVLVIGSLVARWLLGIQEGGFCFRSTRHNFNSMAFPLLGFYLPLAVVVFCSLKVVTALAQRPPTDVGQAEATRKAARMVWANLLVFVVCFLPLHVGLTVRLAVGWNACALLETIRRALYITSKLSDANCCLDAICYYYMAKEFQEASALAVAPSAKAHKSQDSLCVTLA

Cannabinoid receptor 1 [7] = target: T5, Cannabinoid receptor 1 (Homo sapiens, UniProt P21554); test: SAR analysis of agonists of the Cannabinoid Receptor 1 using an Image-Based Assay - Set 2. [Related pubchem assays (depositor defined):AID2013, AID2026]; assay type: functional
T5 sequence (P21554 whole entry): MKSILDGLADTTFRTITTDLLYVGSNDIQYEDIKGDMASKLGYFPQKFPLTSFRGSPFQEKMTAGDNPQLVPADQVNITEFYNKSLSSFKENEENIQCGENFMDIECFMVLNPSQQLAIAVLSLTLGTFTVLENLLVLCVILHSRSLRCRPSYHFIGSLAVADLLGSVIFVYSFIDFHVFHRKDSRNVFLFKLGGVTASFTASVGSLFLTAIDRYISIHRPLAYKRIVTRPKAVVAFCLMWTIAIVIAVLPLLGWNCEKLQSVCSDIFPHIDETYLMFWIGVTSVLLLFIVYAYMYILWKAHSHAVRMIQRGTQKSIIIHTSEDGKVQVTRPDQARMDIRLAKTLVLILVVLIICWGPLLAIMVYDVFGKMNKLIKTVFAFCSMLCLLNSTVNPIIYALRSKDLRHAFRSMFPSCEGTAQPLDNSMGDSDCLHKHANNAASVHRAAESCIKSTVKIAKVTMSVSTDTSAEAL

Cannabinoid receptor 2 [8] = target: T6, Cannabinoid receptor 2 (Homo sapiens, UniProt P34972); test: SAR analysis of antagonists of the Cannabinoid Receptor 2 using an Image-Based Assay. [Related pubchem assays (depositor defined):AID2013, AID2026]; assay type: functional
T6 sequence (P34972 whole entry): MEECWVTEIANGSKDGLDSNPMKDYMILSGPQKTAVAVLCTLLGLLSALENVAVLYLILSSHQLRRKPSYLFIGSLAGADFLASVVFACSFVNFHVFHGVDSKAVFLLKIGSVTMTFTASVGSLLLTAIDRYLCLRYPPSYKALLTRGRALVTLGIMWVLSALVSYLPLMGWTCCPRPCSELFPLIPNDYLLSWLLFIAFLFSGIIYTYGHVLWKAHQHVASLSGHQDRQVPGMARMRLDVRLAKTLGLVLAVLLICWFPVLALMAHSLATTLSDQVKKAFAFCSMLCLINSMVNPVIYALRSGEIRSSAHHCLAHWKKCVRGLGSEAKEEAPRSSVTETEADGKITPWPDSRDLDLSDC

Cannabinoid receptor 1 [9] = target: T5, Cannabinoid receptor 1; test: SAR analysis of antagonists of the Cannabinoid Receptor 1 using an Image-Based Assay - Set 2. [Related pubchem assays (depositor defined):AID2013, AID2026]; assay type: functional
Cannabinoid receptor 2 [10] = target: T6, Cannabinoid receptor 2; test: SAR analysis of agonists of the Cannabinoid Receptor 2 using an Image-Based Assay. [Related pubchem assays (depositor defined):AID2013, AID2026]; assay type: functional
[11] = target: T4, G-protein coupled receptor 35; test: SAR analysis of Antagonists of the GPR35 Receptor using an Image-Based Assay - Set 3. [Related pubchem assays (depositor defined):AID2013, AID2026]; assay type: functional
[12] = target: T7, G-protein coupled receptor 55 (Homo sapiens, UniProt Q9Y2T6); test: GPR55 antagonists blocking LPI-driven arrestin recruitment, primary screen, imaging, U2OS, beta-arrestin-GFP, LPI agonist (AID 2013); assay type: functional;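 also: antagonist potency measured as reduced agonist-driven arrestin aggregation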
T7 sequence (Q9Y2T6 whole entry): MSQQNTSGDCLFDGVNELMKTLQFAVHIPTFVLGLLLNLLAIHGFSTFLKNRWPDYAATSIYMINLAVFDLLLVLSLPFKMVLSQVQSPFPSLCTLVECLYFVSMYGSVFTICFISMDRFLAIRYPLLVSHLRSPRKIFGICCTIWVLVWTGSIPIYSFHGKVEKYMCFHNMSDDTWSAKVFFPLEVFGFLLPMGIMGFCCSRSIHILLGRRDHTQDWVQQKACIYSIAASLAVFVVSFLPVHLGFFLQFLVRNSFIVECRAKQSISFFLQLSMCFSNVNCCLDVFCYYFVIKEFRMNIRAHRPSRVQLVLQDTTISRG

[13] = target: T7, G-protein coupled receptor 55; test: GPR55 antagonist potency of analogs, SAR follow-up, imaging, U2OS, beta-arrestin-GFP, LPI agonist, set 2 (AID 2820); assay type: functional
[14] = target: T8, Polyadenylate-binding protein 1 (Homo sapiens, UniProt P11940); test: PABP1 MLLE–PAM2 binding inhibitor potency, dose response, biochemical, fluorescence polarization, FITC-PAM2 peptide (AID 602259); assay type: functional; details: read-out: IC50_Mean
T8 sequence (P11940 whole entry): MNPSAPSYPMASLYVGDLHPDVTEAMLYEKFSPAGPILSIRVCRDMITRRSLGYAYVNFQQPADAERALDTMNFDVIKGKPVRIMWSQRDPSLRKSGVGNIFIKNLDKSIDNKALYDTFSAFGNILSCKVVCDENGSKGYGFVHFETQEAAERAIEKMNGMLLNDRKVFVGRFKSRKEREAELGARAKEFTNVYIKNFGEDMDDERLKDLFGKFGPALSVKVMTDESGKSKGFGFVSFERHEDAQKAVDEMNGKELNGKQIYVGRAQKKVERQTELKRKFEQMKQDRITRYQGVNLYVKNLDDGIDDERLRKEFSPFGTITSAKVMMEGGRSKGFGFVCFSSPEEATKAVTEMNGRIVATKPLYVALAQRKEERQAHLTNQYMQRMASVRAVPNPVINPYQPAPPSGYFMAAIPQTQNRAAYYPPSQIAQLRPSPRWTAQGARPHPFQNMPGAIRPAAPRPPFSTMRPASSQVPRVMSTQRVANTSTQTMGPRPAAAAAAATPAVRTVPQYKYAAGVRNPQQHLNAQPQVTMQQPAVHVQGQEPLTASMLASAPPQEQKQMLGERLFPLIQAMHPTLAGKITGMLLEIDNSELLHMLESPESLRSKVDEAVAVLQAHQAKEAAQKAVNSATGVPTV

[15] = target: Intestinal-type alkaline phosphatase (Homo sapiens, UniProt P09923); test: activation of human intestinal alkaline phosphatase – biochemical, dose response (AID 488873); assay type: functional
Chain of Intestinal-type alkaline phosphatase (Homo sapiens, UniProt P09923) (P09923 whole entry): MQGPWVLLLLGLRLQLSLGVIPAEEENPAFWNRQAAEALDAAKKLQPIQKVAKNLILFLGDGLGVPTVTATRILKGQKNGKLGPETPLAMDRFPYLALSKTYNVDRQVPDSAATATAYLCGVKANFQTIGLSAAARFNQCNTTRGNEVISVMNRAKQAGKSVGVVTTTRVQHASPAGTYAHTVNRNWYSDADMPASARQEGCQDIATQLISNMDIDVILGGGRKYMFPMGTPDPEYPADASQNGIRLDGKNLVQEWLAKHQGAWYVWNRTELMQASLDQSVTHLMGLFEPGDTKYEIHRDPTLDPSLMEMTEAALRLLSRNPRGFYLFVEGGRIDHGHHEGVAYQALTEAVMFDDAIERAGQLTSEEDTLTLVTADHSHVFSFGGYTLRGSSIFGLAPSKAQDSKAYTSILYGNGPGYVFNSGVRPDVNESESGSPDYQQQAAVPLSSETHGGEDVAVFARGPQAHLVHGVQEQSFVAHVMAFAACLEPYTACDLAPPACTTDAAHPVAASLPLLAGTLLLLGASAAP

[16] = target: Intestinal-type alkaline phosphatase (Mus musculus, UniProt P24822); test: PubChem AID 488785; assay type: functional
Chain of Intestinal-type alkaline phosphatase (Mus musculus, UniProt P24822) (P24822 whole entry): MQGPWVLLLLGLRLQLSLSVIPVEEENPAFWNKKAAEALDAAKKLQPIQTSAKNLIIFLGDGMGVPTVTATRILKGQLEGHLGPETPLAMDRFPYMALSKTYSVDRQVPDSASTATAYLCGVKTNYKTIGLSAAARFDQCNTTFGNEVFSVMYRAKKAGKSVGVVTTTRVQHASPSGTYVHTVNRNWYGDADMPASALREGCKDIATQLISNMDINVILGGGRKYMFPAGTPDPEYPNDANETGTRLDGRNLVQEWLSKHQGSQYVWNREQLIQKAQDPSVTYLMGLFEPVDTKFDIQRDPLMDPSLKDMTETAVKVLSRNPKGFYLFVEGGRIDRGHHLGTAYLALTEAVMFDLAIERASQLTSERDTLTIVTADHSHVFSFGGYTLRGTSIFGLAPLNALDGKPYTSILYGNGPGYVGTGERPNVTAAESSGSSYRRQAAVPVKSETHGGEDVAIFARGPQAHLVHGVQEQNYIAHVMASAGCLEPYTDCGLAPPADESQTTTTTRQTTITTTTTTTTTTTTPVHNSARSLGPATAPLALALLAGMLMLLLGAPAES

[17] = target: T8, Polyadenylate-binding protein 1; test: PABP1 MLLE–PAM2 interaction inhibitors, dose response, miRNA deadenylation inhibitor project, biochemical, fluorescence polarization, Cy5-PAM2 peptide, secondary (AID 602260); assay type: functional; details: read-out: IC50_Mean
[18] = target: T9, Alkaline phosphatase, tissue-nonspecific isozyme (Homo sapiens, UniProt P05186); test: TNAP enzyme inhibition by screening hits, dose response, selectivity assay for mouse IAP inhibitor project, biochemical, human TNAP, uHTS hits (AID 488906); assay type: functional
T9 sequence (P05186 whole entry): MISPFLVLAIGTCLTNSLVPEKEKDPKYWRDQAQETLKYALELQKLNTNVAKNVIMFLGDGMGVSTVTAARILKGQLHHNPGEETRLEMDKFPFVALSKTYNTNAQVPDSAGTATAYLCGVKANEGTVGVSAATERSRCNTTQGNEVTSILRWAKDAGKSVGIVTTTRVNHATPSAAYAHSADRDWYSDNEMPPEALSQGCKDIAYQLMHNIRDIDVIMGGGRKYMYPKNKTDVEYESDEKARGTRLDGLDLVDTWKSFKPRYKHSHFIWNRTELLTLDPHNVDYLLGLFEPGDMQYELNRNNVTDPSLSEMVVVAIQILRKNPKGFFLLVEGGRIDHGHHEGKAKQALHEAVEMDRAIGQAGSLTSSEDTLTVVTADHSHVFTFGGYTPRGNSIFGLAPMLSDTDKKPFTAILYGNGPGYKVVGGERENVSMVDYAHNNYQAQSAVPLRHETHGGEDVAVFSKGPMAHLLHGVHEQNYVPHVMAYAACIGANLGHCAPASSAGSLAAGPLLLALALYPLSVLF

T1 sequence (P51452 whole entry): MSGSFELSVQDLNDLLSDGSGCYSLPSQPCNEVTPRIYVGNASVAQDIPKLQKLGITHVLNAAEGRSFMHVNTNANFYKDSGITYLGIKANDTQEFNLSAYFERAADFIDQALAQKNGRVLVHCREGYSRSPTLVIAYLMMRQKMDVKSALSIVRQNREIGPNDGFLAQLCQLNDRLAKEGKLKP

Question: Which results are given for Cc1ccc(-n2c(=O)c3cc4c(=O)n(-c5ccc(C)c(C)c5)c(=O)c4c(C(=O)c4ccc(C(=O)O)cc4)c3c2=O)cc1C?
Answer: IC50 [1]: 5.31 µM (active); IC50 [2]: 3.39 µM (active); IC50 [3]: 3.13 µM (active); IC50 [4]: 1.12 µM (active); IC50 [5]: 18.9 µM (active)

Question: With COc1ccc(S(=O)(=O)Nc2ccc(F)cc2)cc1N(C)S(=O)(=O)c1ccc(Cl)cc1 as the compound, how does the EC50 [6] read?
Answer: Its EC50 is > 32 µM (inactive).

Question: And the EC50 (Cannabinoid receptor 1 [7])?
Answer: The EC50 was > 32 µM (inactive).

Question: What about the IC50 (Cannabinoid receptor 2 [8]) of the same compound?
Answer: The IC50 was > 32 µM (inactive).

Question: And the IC50 (Cannabinoid receptor 1 [9])?
Answer: The IC50 was 6.63 µM (active).

Question: And the EC50 (Cannabinoid receptor 2 [10])?
Answer: Its EC50 is > 32 µM (inactive).

Question: And the IC50 [11]?
Answer: Its IC50 is > 32 µM (inactive).

Question: And the IC50 [12]?
Answer: The IC50 was 0.908 µM (active).

Question: And the IC50 [13]?
Answer: Its IC50 is 0.831 µM (active).

Question: CCOC(=O)CN1C(=O)/C(=C2\SC(=S)N(NC(=O)c3cccnc3)C2=O)c2ccccc21 was tested. Which IC50 [14] did it give?
Answer: The IC50 was > 66 µM (inactive).

Question: What about the EC50 [15] of the same compound?
Answer: Its EC50 is 25.5 µM (active).

Question: And the IC50 [16]?
Answer: Its IC50 is 11.2 µM (active).

Question: And the IC50 [17]?
Answer: Its IC50 is > 66 µM (inactive).

Question: What about the IC50 [18] of the same compound?
Answer: Its IC50 is > 100 µM (inactive).
